Test results published in the NIST ThermoML archive (doi:10.1021/je050183a).

Assays:
[1] = xn = mol fraction of the nth substance listed; conditions: 101 kPa, Liquid; for viscosity: Capillary tube (Ostwald / Ubbelohde) method; for speed of sound: Linear variable-path acoustic interferometer; for mass density: Pycnometric method
[2] = refractive index (Na D-line) (dimensionless); xn = mol fraction of the nth substance listed; conditions: 298.15 K, 101 kPa, Liquid, Standard Abbe refractometry

CC1OC(C)OC(C)O1 (stereo not drawn) [2,4,6-trimethyl-1,3,5-trioxane] + COC(=O)OC
[1]
Conditions	mass density, 288.15 K [kg/m3]	mass density, 298.15 K [kg/m3]	speed of sound, 288.15 K [m/s]	speed of sound, 298.15 K [m/s]	viscosity, 288.15 K [mPa·s]	viscosity, 298.15 K [mPa·s]
x1 = 0.0204	1074.19	1060.99	1242.2	1197.4	0.66	0.59
x1 = 0.0409	1071.96	1058.89	1242.3	1197.3	0.673	0.6
x1 = 0.059	1070.03	1057.07	1242.4	1197.3	0.684	0.609
x1 = 0.0845	1067.35	1054.53	1242.4	1197	0.699	0.62
x1 = 0.1091	1064.81	1052.11	1242.3	1196.8	0.713	0.63
x1 = 0.2258	1053.37	1041.01	1240.4	1194.6	0.77	0.673
x1 = 0.3012	1046.5	1034.2	1238.4	1192.7	0.803	0.697
x1 = 0.3994	1038.14	1025.83	1235	1189.6	0.844	0.727
x1 = 0.494	1030.68	1018.35	1231.2	1186	0.887	0.757
x1 = 0.5906	1023.62	1011.31	1227.2	1182.3	0.936	0.793
x1 = 0.696	1016.52	1004.26	1223.1	1178.5	1.002	0.84
x1 = 0.808	1009.63	997.47	1219.3	1175.3	1.091	0.906
x1 = 0.9289	1002.87	991.2	1216.7	1173.1	1.214	0.998
x1 = 1	999.69	988.35	1217.7	1174.5	1.374	1.107

[2]
Conditions	refractive index
x1 = 0.0204	1.3673
x1 = 0.0409	1.3686
x1 = 0.059	1.3696
x1 = 0.0845	1.3711
x1 = 0.1091	1.3725
x1 = 0.2258	1.3786
x1 = 0.3012	1.382
x1 = 0.3994	1.386
x1 = 0.494	1.3894
x1 = 0.5906	1.3925
x1 = 0.696	1.3956
x1 = 0.808	1.3985
x1 = 0.9289	1.4014
x1 = 1	1.4029
